Measurements from patent US7141564B2, “Nitrogen-containing bicyclic heterocycles for use as antibacterials” (priority 2001, dated 2006).
Structures can show the parent of a compound that is named as a salt.

Test: MIC of test compounds against various organisms
Assay type: cell-based
Conditions: not given

Structure (SMILES)	MIC
COc1ccc2nccc(NC(=O)C3=CCC(N(CC(=O)O)Cc4ccc5c(c4)NC(=O)CS5)CC3)c2n1 (racemic) [Example 156, (R/S)-4-[Carboxymethyl-(3-oxo-3,4-dihydro-2H-benzo[1,4]thiazin-6-ylmethyl)-amino]-cyclohex-1-enecarboxylic Acid (6-methoxy-[1,5]naphthyridin-4-yl)-amide Bis(trifluoroacetate) Salt]	≤ 16 µg/mL
COc1ccc2nccc(NC(=O)[C@H]3CC[C@H](NCc4ccc5c(c4)NC(=O)CS5)CC3)c2c1 [Example 28, Trans 4-[(3-Oxo-3,4-dihydro-2-H-benzo[1,4]thiazin-6-ylmethyl)-amino]-cyclohexanecarboxylic acid (6-methoxy-quinolin-4-yl)-amide]	≤ 4 µg/mL

Same assay, conditions: versus all these organisms (panel of 10 strains); read-out: MIC

Structure (SMILES)	MIC
COc1ccc2nccc(NC(=O)[C@H]3CC[C@H](NCc4ccc5snnc5c4)CC3)c2n1 [Example 6, Trans-4-[(Benzo[1,2,3]thiadiazol-5-ylmethyl)-amino]-cyclohexanecarboxylic acid (6-methoxy-[1,5]naphthyridin-4-yl)-amide fumarate salt]	≤ 4 µg/mL
COc1ccc2nccc(NC(=O)[C@H]3CC[C@H](NCc4ccc5c(c4)OCCO5)CC3)c2c1 [Example 11, Trans-4-[(2,3-Dihydro-benzo[1,4]dioxin-6-ylmethyl)-amino]-cyclohexanecarboxylic acid (6-methoxy-quinolin-4-yl)-amide fumarate salt]	≤ 16 µg/mL
COc1cc(F)c2nccc(NC(=O)[C@H]3CC[C@H](NCc4ccc5c(c4)NC(=O)CS5)CC3)c2c1 [Example 30, Trans-4-[(3-Oxo-3,4-dihydro-2-H-benzo[1,4]thiazin-6-ylmethyl)amino]-cyclohexanecarboxylic acid (8-fluoro-6-methoxy-quinolin-4-yl)-amide oxalate]	≤ 4 µg/mL
COc1ccc2nccc(NC(=O)[C@H]3CC[C@H](NCc4ccc5c(c4)OCCO5)CC3)c2n1 [Example 5, Trans-4-[(2,3-Dihydro-benzo[1,4]dioxin-6-ylmethyl)-amino]-cyclohexanecarboxylic acid (6-methoxy-[1,5]naphthyridin-4-yl)-amide fumarate salt]	≤ 4 µg/mL
COc1ccc2nccc(NC(=O)[C@H]3CC[C@H](NCc4cnc5c(c4)NC(=O)CS5)CC3)c2n1 [Example 13, Trans-4-[(2-Oxo-2,3-dihydro-1H-pyrido[2,3-b][1,4]thiazin-7-ylmethyl)-amino]-cyclohexanecarboxylic Acid (6-methoxy-[1,5]naphthyridin-4-yl)-amide oxalate salt]	≤ 4 µg/mL
COc1ccc2nccc(NC(=O)[C@H]3CC[C@H](NCc4cc5c(cc4N)OCO5)CC3)c2n1 [Example 24, Trans-4-[(6-Amino-benzo[1,3]dioxol-5-ylmethyl)-amino]-cyclohexanecarboxylic acid (6-methoxy-[1,5]naphthyridin-4-yl)-amide dioxalate salt]	≤ 16 µg/mL
COc1ccc2nccc(NC(=O)[C@H]3CC[C@H](NCc4ccc5c(c4)NC(=O)CO5)CC3)c2n1 [Example 8, Trans-4-[(3-Oxo-3,4-dihydro-2H-benzo[1,4]oxazin-6-ylmethyl)-amino]-cyclohexanecarboxylic acid (6-methoxy-[1,5]naphthyridin-4-yl)-amide fumarate salt]	≤ 4 µg/mL
COc1ccc2nccc(C(=O)C[C@H]3CC[C@H](NCc4ccc5c(c4)OCCO5)CC3)c2c1 [Example 27, Trans-2-{4-[(2,3-Dihydro-benzo[1,4]dioxin-6-ylmethyl)-amino]-cyclohexyl}-1-(6-methoxy-quinolin-4-yl)-ethanone oxalate salt]	≤ 64 µg/mL
COc1ccc2nccc(NC(=O)C3=CCC(NCc4ccc5c(c4)NC(=O)CS5)CC3)c2n1 (racemic) [Example 150, (R/S)-4-[(3-Oxo-3,4-dihydro-2H-benzo-[1,4]thiazin-6ylmethyl)-amino]-cyclohex-1-ene carboxylic acid (6-methoxy-[1,5]naphthyridin-4-yl)-amide oxalate]	≤ 4 µg/mL
COc1ccc2nccc(NC(=O)[C@H]3CC[C@H](NCc4cc(=O)n5ccccc5n4)CC3)c2n1 [Example 26, Trans-4-[(4-Oxo-4 H pyrido[1,2-a]pyrimidin-2-ylmethyl)-amino]-cyclohexanecarboxylic acid (6-methoxy-[1,5]naphthyridin-4-yl)-amide oxalate salt]	≤ 16 µg/mL
COc1ccc2nccc(NC(=O)[C@H]3CC[C@H](NCc4cnc5c(c4)NC(=O)CS5)CC3)c2c1 [Example 14, Trans-4-[(2-Oxo-2,3-dihydro-1H-pyrido[2,3-b][1,4]thiazin-7-ylmethyl)-amino]-cyclohexanecarboxylic acid (6-methoxy-quinolin-4-yl)-amide oxalate salt]	≤ 16 µg/mL
COc1cc(F)c2nccc(NC(=O)[C@H]3CC[C@H](NCc4ccc5c(c4)OCCO5)CC3)c2c1 [Example 10, Trans-4-[(2,3-Dihydro-benzo[1,4]dioxin-6-ylmethyl)-amino]-cyclohexanecarboxylic acid (8-fluoro-6-methoxy-quinolin-4-yl)-amide Fumarate Salt]	≤ 16 µg/mL
COc1ccc2nccc(NC(=O)[C@]3(O)CC[C@@H](NCc4nc5c(cc4Br)SCC(=O)N5)CC3)c2n1 [Example 304, 1-Hydroxy-t-4-[(7-bromo-3-oxo-3,4-dihydro-2H-pyrido[3,2-b][1,4]thiazin-6-ylmethyl)-amino]-r-cyclohexanecarboxylic Acid (6-methoxy-[1,5]naphthyridin-4-yl)-amide Dihydrochloride]	≤ 4 µg/mL
COc1ccc2nccc(NC(=O)[C@H]3CC[C@H](NCc4ccc5nsnc5c4)CC3)c2c1 [Example 12, Trans-4-[(Benzo[1,2,5]thiadiazol-5-ylmethyl)-amino]-cyclohexanecarboxylic acid (6-methoxy-quinolin-4-yl)-amide fumarate salt]	≤ 4 µg/mL
COc1ccc2nccc(C(O)C[C@H]3CC[C@H](NCc4ccc5c(c4)NC(=O)CS5)CC3)c2c1 (stereo partly drawn) [Example 21, Trans-6-({4-[2-Hydroxy-2-(6-methoxy-quinolin-4-yl)-ethyl]-cyclohexylamino}-methyl)-4-H-benzo[1,4]thiazin-3-one oxalate salt]	≤ 4 µg/mL
COc1ccc2nccc(NC(=O)[C@H]3CC[C@H](NCc4cnc5snnc5c4)CC3)c2n1 [Example 32, Trans-4-[([1,2,3]Thiadiazolo[5,4-b]pyridin-6-ylmethyl)-amino]-cyclohexanecarboxylic acid (6-methoxy-[1,5]naphthyridin-4-yl)-amide oxalate]	≤ 4 µg/mL
COc1ccc2nccc(NC(=O)[C@]3(O)CC[C@@H](NCc4ccc5c(n4)NC(=O)CS5)CC3)c2n1 [Example 301, 1-Hydroxy-t-4-[(3-oxo-3,4-dihydro-2H-pyrido[3,2-b][1,4]thiazin-6-ylmethyl)-amino]-r-cyclohexanecarboxylic Acid (6-methoxy-[1,5]naphthyridin-4-yl)-amide Dihydrochloride]	≤ 4 µg/mL
